From ChEMBL document CHEMBL3390848, “Affinity selection and sequence-activity relationships of HIV-1 membrane fusion inhibitors directed at the drug-resistant variants” (Medchemcomm, 2010) come the findings set out here.

The subject of assay [1] is Human immunodeficiency virus 1. The assay is described as follows: Antiviral activity against HIV1 NL4-3 harboring gp41 D36G mutant infected in human HeLa cells expressing CD4-LTR-beta-gal assessed as inhibition of viral replication after 48 hrs by MAGI assay. It counts as functional, organism-based.
Assay [2] relates to Human immunodeficiency virus 1. Kind of assay: Binding affinity to HIV1 His-tagged N-terminal heptad repeat of envelope glycoprotein gp41 assessed as recovery of N54-drug complex after 2 hrs by LC-MS analysis. Also on record: concentration or dose not given beside the values.
Assay [3] deals with Human immunodeficiency virus 1. Kind of assay: Thermal stability of HIV1 envelope glycoprotein gp41 His-tagged N-terminal heptad repeat N54-drug complex assessed as thermal unfolding transition state by measuring molar ellipticity at 4 to 90 degC by circular dichroic spectra analysis.

The structures appear in SMILES notation. Residues, ends and D or L forms follow the SMILES beside them. Bounds are passed on as bounds.

In the case of `CC[C@H](C)[C@H](NC(=O)[C@H](CC(C)C)NC(=O)[C@H](CCC(=O)O)NC(=O)[C@H](CCC(=O)O)NC(=O)[C@@H](NC(=O)[C@H](CC(C)C)NC(=O)[C@H](CO)NC(=O)[C@@H](NC(=O)[C@H](Cc1ccc(O)cc1)NC(C)=O)[C@@H](C)O)[C@@H](C)CC)C(=O)N[C@@H](CCCCN)C(=O)N[C@@H](CCCCN)C(=O)N[C@@H](CO)C(=O)N[C@@H](CCC(=O)O)C(=O)N[C@@H](CCC(=O)O)C(=O)N[C@@H](CCC(=O)O)C(=O)N[C@@H](CCC(N)=O)C(=O)N[C@@H](CCCCN)C(=O)N[C@@H](CCCCN)C(=O)N[C@@H](CC(N)=O)C(=O)N[C@@H](CCC(=O)O)C(=O)N[C@@H](CCC(=O)O)C(=O)N[C@@H](CCC(=O)O)C(=O)N[C@@H](CC(C)C)C(=O)N[C@@H](CCCCN)C(=O)N[C@@H](CCCCN)C(=O)N[C@@H](CC(C)C)C(=O)N[C@@H](CCC(=O)O)C(=O)N[C@@H](CCC(=O)O)C(=O)N[C@@H](Cc1c[nH]c2ccccc12)C(=O)N[C@@H](C)C(=O)N[C@@H](CCCCN)C(=O)N[C@@H](CCCCN)C(=O)N[C@@H](Cc1c[nH]c2ccccc12)C(=O)N[C@@H](CC(N)=O)C(=O)N[C@@H](Cc1c[nH]c2ccccc12)C(=O)N[C@@H](Cc1ccccc1)C(N)=O` (Ac-YTSLIEELIKKSEEEQKKNEEELKKLEEWAKKWNWF-NH2), the EC50 in assay [1] came out at 3.8 nM. Also, in assay [2], the Activity is 8.2%. Moreover, the melting temperature (Tm) in assay [3] was 71.8 °C.

For `CC[C@H](C)[C@H](NC(=O)[C@H](CC(C)C)NC(=O)[C@H](CCC(=O)O)NC(=O)[C@H](CCC(=O)O)NC(=O)[C@@H](NC(=O)[C@H](CC(C)C)NC(=O)[C@H](CO)NC(=O)[C@@H](NC(=O)[C@H](Cc1ccc(O)cc1)NC(C)=O)[C@@H](C)O)[C@@H](C)CC)C(=O)N[C@@H](CCCCN)C(=O)N[C@@H](CCCCN)C(=O)N[C@@H](CO)C(=O)N[C@@H](CCC(=O)O)C(=O)N[C@@H](CCC(=O)O)C(=O)N1CCC[C@H]1C(=O)N[C@@H](CCC(N)=O)C(=O)N[C@@H](CCCCN)C(=O)N[C@@H](CCCCN)C(=O)N[C@@H](CC(N)=O)C(=O)N[C@@H](CCC(=O)O)C(=O)N[C@@H](CCC(=O)O)C(=O)N[C@@H](CCC(=O)O)C(=O)N[C@@H](CC(C)C)C(=O)N[C@@H](CCCCN)C(=O)N[C@@H](CCCCN)C(=O)N[C@@H](CC(C)C)C(=O)N[C@@H](CCC(=O)O)C(=O)N[C@@H](CCC(=O)O)C(=O)N[C@@H](Cc1c[nH]c2ccccc12)C(=O)N[C@@H](C)C(=O)N[C@@H](CCCCN)C(=O)N[C@@H](CCCCN)C(=O)N[C@@H](Cc1c[nH]c2ccccc12)C(=O)N[C@@H](CC(N)=O)C(=O)N[C@@H](Cc1c[nH]c2ccccc12)C(=O)N[C@@H](Cc1ccccc1)C(N)=O` (Ac-YTSLIEELIKKSEEPQKKNEEELKKLEEWAKKWNWF-NH2), in assay [1], the concentration for a half-maximal effect (EC50) was more than 1000 nM. Also, the Activity in assay [2] amounted to 0.3%. Further, in assay [3], the Tm was determined as 52 °C.

For `CC[C@H](C)[C@H](NC(=O)[C@H](CC(C)C)NC(=O)[C@H](CCC(=O)O)NC(=O)[C@H](CCC(=O)O)NC(=O)[C@@H](NC(=O)[C@H](CC(C)C)NC(=O)[C@H](CO)NC(=O)[C@@H](NC(=O)[C@H](Cc1ccc(O)cc1)NC(C)=O)[C@@H](C)O)[C@@H](C)CC)C(=O)N[C@@H](CCCCN)C(=O)N[C@@H](CCCCN)C(=O)N[C@@H](CO)C(=O)N[C@@H](CCC(=O)O)C(=O)N[C@@H](CCC(=O)O)C(=O)N[C@@H](CO)C(=O)N[C@@H](CCC(N)=O)C(=O)N[C@@H](CCCCN)C(=O)N[C@@H](CCCCN)C(=O)N[C@@H](CC(N)=O)C(=O)N[C@@H](CCC(=O)O)C(=O)N[C@@H](CCC(=O)O)C(=O)N[C@@H](CCC(=O)O)C(=O)N[C@@H](CC(C)C)C(=O)N[C@@H](CCCCN)C(=O)N[C@@H](CCCCN)C(=O)N[C@@H](CC(C)C)C(=O)N[C@@H](CCC(=O)O)C(=O)N[C@@H](CCC(=O)O)C(=O)N[C@@H](Cc1c[nH]c2ccccc12)C(=O)N[C@@H](C)C(=O)N[C@@H](CCCCN)C(=O)N[C@@H](CCCCN)C(=O)N[C@@H](Cc1c[nH]c2ccccc12)C(=O)N[C@@H](CC(N)=O)C(=O)N[C@@H](Cc1c[nH]c2ccccc12)C(=O)N[C@@H](Cc1ccccc1)C(N)=O` (Ac-YTSLIEELIKKSEESQKKNEEELKKLEEWAKKWNWF-NH2), the EC50 in assay [1] stood at 4.6 nM. Further, in assay [2], the Activity amounted to 3.2%. The Tm in assay [3] came out at 66.7 °C.

In the case of `CC[C@H](C)[C@H](NC(=O)[C@H](CC(C)C)NC(=O)[C@H](CCC(=O)O)NC(=O)[C@H](CCC(=O)O)NC(=O)[C@@H](NC(=O)[C@H](CC(C)C)NC(=O)[C@H](CO)NC(=O)[C@@H](NC(=O)[C@H](Cc1ccc(O)cc1)NC(C)=O)[C@@H](C)O)[C@@H](C)CC)C(=O)N[C@@H](CCCCN)C(=O)N[C@@H](CCCCN)C(=O)N[C@@H](CO)C(=O)N[C@@H](CCC(=O)O)C(=O)N[C@@H](CCC(=O)O)C(=O)N[C@@H](CC(C)C)C(=O)N[C@@H](CCC(N)=O)C(=O)N[C@@H](CCCCN)C(=O)N[C@@H](CCCCN)C(=O)N[C@@H](CC(N)=O)C(=O)N[C@@H](CCC(=O)O)C(=O)N[C@@H](CCC(=O)O)C(=O)N[C@@H](CCC(=O)O)C(=O)N[C@@H](CC(C)C)C(=O)N[C@@H](CCCCN)C(=O)N[C@@H](CCCCN)C(=O)N[C@@H](CC(C)C)C(=O)N[C@@H](CCC(=O)O)C(=O)N[C@@H](CCC(=O)O)C(=O)N[C@@H](Cc1c[nH]c2ccccc12)C(=O)N[C@@H](C)C(=O)N[C@@H](CCCCN)C(=O)N[C@@H](CCCCN)C(=O)N[C@@H](Cc1c[nH]c2ccccc12)C(=O)N[C@@H](CC(N)=O)C(=O)N[C@@H](Cc1c[nH]c2ccccc12)C(=O)N[C@@H](Cc1ccccc1)C(N)=O` (Ac-YTSLIEELIKKSEELQKKNEEELKKLEEWAKKWNWF-NH2), in assay [1], the EC50 stood at 0.5 nM. In addition, in assay [2], the Activity came out at 10.4%. The Tm in assay [3] was found to be 77.4 °C.

Take `CC[C@H](C)[C@H](NC(=O)[C@H](CC(C)C)NC(=O)[C@H](CCC(=O)O)NC(=O)[C@H](CCC(=O)O)NC(=O)[C@@H](NC(=O)[C@H](CC(C)C)NC(=O)[C@H](CO)NC(=O)[C@@H](NC(=O)[C@H](Cc1ccc(O)cc1)NC(C)=O)[C@@H](C)O)[C@@H](C)CC)C(=O)N[C@@H](CCCCN)C(=O)N[C@@H](CCCCN)C(=O)N[C@@H](CO)C(=O)N[C@@H](CCC(=O)O)C(=O)N[C@@H](CCC(=O)O)C(=O)N[C@@H](CC(=O)O)C(=O)N[C@@H](CCC(N)=O)C(=O)N[C@@H](CCCCN)C(=O)N[C@@H](CCCCN)C(=O)N[C@@H](CC(N)=O)C(=O)N[C@@H](CCC(=O)O)C(=O)N[C@@H](CCC(=O)O)C(=O)N[C@@H](CCC(=O)O)C(=O)N[C@@H](CC(C)C)C(=O)N[C@@H](CCCCN)C(=O)N[C@@H](CCCCN)C(=O)N[C@@H](CC(C)C)C(=O)N[C@@H](CCC(=O)O)C(=O)N[C@@H](CCC(=O)O)C(=O)N[C@@H](Cc1c[nH]c2ccccc12)C(=O)N[C@@H](C)C(=O)N[C@@H](CCCCN)C(=O)N[C@@H](CCCCN)C(=O)N[C@@H](Cc1c[nH]c2ccccc12)C(=O)N[C@@H](CC(N)=O)C(=O)N[C@@H](Cc1c[nH]c2ccccc12)C(=O)N[C@@H](Cc1ccccc1)C(N)=O` (Ac-YTSLIEELIKKSEEDQKKNEEELKKLEEWAKKWNWF-NH2): the EC50 in assay [1] was 3.5 nM. Moreover, the Activity in assay [2] came to 8.2%. In assay [3], the midpoint of thermal melting (Tm) stood at 71.4 °C.

Regarding `CC[C@H](C)[C@H](NC(=O)[C@H](CC(C)C)NC(=O)[C@H](CCC(=O)O)NC(=O)[C@H](CCC(=O)O)NC(=O)[C@@H](NC(=O)[C@H](CC(C)C)NC(=O)[C@H](CO)NC(=O)[C@@H](NC(=O)[C@H](Cc1ccc(O)cc1)NC(C)=O)[C@@H](C)O)[C@@H](C)CC)C(=O)N[C@@H](CCCCN)C(=O)N[C@@H](CCCCN)C(=O)N[C@@H](CO)C(=O)N[C@@H](CCC(=O)O)C(=O)N[C@@H](CCC(=O)O)C(=O)N[C@@H](Cc1c[nH]c2ccccc12)C(=O)N[C@@H](CCC(N)=O)C(=O)N[C@@H](CCCCN)C(=O)N[C@@H](CCCCN)C(=O)N[C@@H](CC(N)=O)C(=O)N[C@@H](CCC(=O)O)C(=O)N[C@@H](CCC(=O)O)C(=O)N[C@@H](CCC(=O)O)C(=O)N[C@@H](CC(C)C)C(=O)N[C@@H](CCCCN)C(=O)N[C@@H](CCCCN)C(=O)N[C@@H](CC(C)C)C(=O)N[C@@H](CCC(=O)O)C(=O)N[C@@H](CCC(=O)O)C(=O)N[C@@H](Cc1c[nH]c2ccccc12)C(=O)N[C@@H](C)C(=O)N[C@@H](CCCCN)C(=O)N[C@@H](CCCCN)C(=O)N[C@@H](Cc1c[nH]c2ccccc12)C(=O)N[C@@H](CC(N)=O)C(=O)N[C@@H](Cc1c[nH]c2ccccc12)C(=O)N[C@@H](Cc1ccccc1)C(N)=O` (Ac-YTSLIEELIKKSEEWQKKNEEELKKLEEWAKKWNWF-NH2), in assay [1], the EC50 turned out to be 2.5 nM. The Activity in assay [2] amounted to 8.1%. The Tm in assay [3] was 68.8 °C.

As for `CC[C@H](C)[C@H](NC(=O)[C@H](CC(C)C)NC(=O)[C@H](CCC(=O)O)NC(=O)[C@H](CCC(=O)O)NC(=O)[C@@H](NC(=O)[C@H](CC(C)C)NC(=O)[C@H](CO)NC(=O)[C@@H](NC(=O)[C@H](Cc1ccc(O)cc1)NC(C)=O)[C@@H](C)O)[C@@H](C)CC)C(=O)N[C@@H](CCCCN)C(=O)N[C@@H](CCCCN)C(=O)N[C@@H](CO)C(=O)N[C@@H](CCC(=O)O)C(=O)N[C@@H](CCC(=O)O)C(=O)N[C@@H](CC(N)=O)C(=O)N[C@@H](CCC(N)=O)C(=O)N[C@@H](CCCCN)C(=O)N[C@@H](CCCCN)C(=O)N[C@@H](CC(N)=O)C(=O)N[C@@H](CCC(=O)O)C(=O)N[C@@H](CCC(=O)O)C(=O)N[C@@H](CCC(=O)O)C(=O)N[C@@H](CC(C)C)C(=O)N[C@@H](CCCCN)C(=O)N[C@@H](CCCCN)C(=O)N[C@@H](CC(C)C)C(=O)N[C@@H](CCC(=O)O)C(=O)N[C@@H](CCC(=O)O)C(=O)N[C@@H](Cc1c[nH]c2ccccc12)C(=O)N[C@@H](C)C(=O)N[C@@H](CCCCN)C(=O)N[C@@H](CCCCN)C(=O)N[C@@H](Cc1c[nH]c2ccccc12)C(=O)N[C@@H](CC(N)=O)C(=O)N[C@@H](Cc1c[nH]c2ccccc12)C(=O)N[C@@H](Cc1ccccc1)C(N)=O` (Ac-YTSLIEELIKKSEENQKKNEEELKKLEEWAKKWNWF-NH2), the concentration for a half-maximal effect (EC50) in assay [1] is 3.6 nM. The Activity in assay [2] came out at 4.4%. The Tm in assay [3] is 69 °C.

Usually EC50 stands for the concentration that produces a half-maximal response. Usually Tm stands for the temperature at which the thermal transition is half complete.
